Data reported in ChEMBL document CHEMBL5113502, “Accommodation of ring C expanded deoxyvasicinone in the HDAC inhibitory pharmacophore culminates into a tractable anti-lung cancer agent and pH-responsive nanocarrier” (Eur J Med Chem, 2022).
Calls of active or inactive are those of the source. No cut-off for these calls is given here.

Legend:
HOP-62 = assay: Cytotoxicity against human HOP-62 cells assessed as cell viability after 48 hrs by MTT assay; type: functional, cell-based; details: HOP-62, 48 h
A549 [1] = assay: Induction of apoptosis in human A549 cells assessed as apoptotic bodies formation after 24 hrs by fluorescence microscopic analysis; type: functional, cell-based; details: dose 0.1-1 µM, DDE = dose-dependent effect
Histone deacetylase 2 = Histone deacetylase 2 (Homo sapiens, UniProt Q92769); assay: Inhibition of HDAC2 (unknown origin) by colorimetric method
Chain of Histone deacetylase 2 (Q92769 whole entry): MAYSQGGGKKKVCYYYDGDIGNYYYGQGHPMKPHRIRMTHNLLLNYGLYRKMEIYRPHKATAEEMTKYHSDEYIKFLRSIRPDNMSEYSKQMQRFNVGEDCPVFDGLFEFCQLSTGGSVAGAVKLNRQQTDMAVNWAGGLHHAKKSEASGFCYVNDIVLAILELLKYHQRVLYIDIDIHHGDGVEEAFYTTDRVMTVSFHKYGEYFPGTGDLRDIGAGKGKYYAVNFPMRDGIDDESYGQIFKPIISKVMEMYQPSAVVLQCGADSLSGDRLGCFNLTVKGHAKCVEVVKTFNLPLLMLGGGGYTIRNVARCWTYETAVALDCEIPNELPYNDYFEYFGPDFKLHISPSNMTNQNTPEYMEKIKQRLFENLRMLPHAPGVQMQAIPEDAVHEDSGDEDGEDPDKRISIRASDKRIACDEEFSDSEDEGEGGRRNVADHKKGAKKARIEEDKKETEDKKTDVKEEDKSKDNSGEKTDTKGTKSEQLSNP

Histone deacetylase 3 = Histone deacetylase 3 (Homo sapiens, UniProt O15379); assay: Inhibition of HDAC3 (unknown origin) by colorimetric method
Chain of Histone deacetylase 3 (O15379 whole entry): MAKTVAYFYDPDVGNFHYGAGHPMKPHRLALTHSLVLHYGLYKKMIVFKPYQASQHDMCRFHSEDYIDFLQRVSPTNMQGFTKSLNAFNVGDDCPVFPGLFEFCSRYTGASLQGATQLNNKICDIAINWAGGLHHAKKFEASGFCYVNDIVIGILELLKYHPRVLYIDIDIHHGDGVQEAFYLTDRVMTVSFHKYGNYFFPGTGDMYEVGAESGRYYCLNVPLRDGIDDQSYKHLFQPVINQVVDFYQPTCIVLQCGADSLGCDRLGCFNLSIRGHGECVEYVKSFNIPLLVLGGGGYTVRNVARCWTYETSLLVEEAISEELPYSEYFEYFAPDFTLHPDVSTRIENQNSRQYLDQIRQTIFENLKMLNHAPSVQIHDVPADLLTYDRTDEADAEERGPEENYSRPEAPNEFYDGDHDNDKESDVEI

[2] = target: T1, Protein deacetylase HDAC6 (Homo sapiens, UniProt Q9UBN7); assay: Inhibition of HDAC6 (unknown origin) by colorimetric method
T1 sequence (Q9UBN7 whole entry): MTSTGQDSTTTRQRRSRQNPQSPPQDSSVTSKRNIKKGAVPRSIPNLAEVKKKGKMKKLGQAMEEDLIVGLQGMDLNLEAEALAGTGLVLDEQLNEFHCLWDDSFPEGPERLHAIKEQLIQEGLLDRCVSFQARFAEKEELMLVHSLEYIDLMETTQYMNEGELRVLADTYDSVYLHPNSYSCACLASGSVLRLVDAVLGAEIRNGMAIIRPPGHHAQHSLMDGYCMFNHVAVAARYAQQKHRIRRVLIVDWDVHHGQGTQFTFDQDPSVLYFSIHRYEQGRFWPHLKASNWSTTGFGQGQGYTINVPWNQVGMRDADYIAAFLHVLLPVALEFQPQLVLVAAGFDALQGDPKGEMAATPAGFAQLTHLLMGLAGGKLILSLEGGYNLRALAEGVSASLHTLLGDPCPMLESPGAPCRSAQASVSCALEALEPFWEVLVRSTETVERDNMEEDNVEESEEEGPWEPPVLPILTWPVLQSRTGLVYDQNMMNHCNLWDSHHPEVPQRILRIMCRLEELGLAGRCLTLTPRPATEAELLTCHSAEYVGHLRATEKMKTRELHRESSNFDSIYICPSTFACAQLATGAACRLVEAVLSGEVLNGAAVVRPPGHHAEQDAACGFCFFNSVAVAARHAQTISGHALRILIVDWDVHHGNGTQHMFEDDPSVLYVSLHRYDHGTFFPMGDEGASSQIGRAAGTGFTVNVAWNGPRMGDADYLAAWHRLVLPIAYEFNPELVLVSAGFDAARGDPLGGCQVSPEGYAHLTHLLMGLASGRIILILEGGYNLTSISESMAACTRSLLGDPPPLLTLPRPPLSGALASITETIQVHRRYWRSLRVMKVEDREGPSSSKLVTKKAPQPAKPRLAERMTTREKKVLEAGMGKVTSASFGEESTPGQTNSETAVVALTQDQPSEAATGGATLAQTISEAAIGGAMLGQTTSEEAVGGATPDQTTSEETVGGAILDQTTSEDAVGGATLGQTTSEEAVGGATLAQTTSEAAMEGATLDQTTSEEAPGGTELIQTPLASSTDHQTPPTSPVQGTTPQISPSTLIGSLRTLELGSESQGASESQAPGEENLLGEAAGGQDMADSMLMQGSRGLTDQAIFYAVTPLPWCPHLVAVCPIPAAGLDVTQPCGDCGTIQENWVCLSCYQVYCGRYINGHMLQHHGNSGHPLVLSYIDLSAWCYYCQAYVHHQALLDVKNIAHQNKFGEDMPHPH

Histone deacetylase 8 = target: T2, Histone deacetylase 8 (Homo sapiens, UniProt Q9BY41); assay: Inhibition of HDAC8 (unknown origin) by colorimetric method
T2 sequence (Q9BY41 whole entry): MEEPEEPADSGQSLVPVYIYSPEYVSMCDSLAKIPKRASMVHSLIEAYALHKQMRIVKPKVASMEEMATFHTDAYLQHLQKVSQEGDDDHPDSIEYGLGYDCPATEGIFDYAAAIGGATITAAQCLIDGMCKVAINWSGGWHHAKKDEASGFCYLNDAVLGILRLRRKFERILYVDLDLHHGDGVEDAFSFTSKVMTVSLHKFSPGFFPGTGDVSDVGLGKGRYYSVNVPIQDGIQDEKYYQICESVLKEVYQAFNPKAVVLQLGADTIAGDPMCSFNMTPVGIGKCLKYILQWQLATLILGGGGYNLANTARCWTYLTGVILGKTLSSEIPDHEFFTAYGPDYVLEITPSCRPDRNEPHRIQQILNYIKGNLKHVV

Homo sapiens [3] = species on record: Homo sapiens; assay: Selectivity index, ratio of IC50 for HDAC 1 (unknown origin) to IC50 for HDAC 6 (unknown origin)
Homo sapiens [4] = species on record: Homo sapiens; assay: Selectivity index, ratio of IC50 for HDAC 1 (unknown origin) to IC50 for HDAC 3 (unknown origin)
Homo sapiens [5] = species on record: Homo sapiens; assay: Selectivity index, ratio of IC50 for HDAC 4 (unknown origin) to IC50 for HDAC 3 (unknown origin)
Homo sapiens [6] = species on record: Homo sapiens; assay: Selectivity index, ratio of IC50 for HDAC 5 (unknown origin) to IC50 for HDAC 3 (unknown origin)
Homo sapiens [7] = species on record: Homo sapiens; assay: Selectivity index, ratio of IC50 for HDAC 7 (unknown origin) to IC50 for HDAC 3 (unknown origin)
Homo sapiens [8] = species on record: Homo sapiens; assay: Selectivity index, ratio of IC50 for HDAC 9 (unknown origin) to IC50 for HDAC 3 (unknown origin)
Homo sapiens [9] = species on record: Homo sapiens; assay: Selectivity index, ratio of IC50 for HDAC7 (unknown origin) to IC50 for HDAC 1 (unknown origin)
A549 [10] = assay: Downregulation of HDAC1 expression in human A549 cells at 0.1 to 1 uM after 24 hrs by Western blot analysis; type: functional, cell-based; details: dose 0.1-1 µM
A549 [11] = assay: Downregulation of HDAC6 expression in human A549 cells at 0.1 to 1 uM after 24 hrs by Western blot analysis; type: functional, cell-based; details: dose 0.1-1 µM
A549 [12] = assay: Inhibition of HDAC1/HDAC3/HDAC6 in human A549 cells assessed as increase in H3 acK9 level by Western blot analysis; type: cell-based

IC50 (Histone deacetylase 2): 1260 nM | IC50 (Histone deacetylase 3): 68.5 nM | IC50 [2]: 12.9 nM | IC50 (Histone deacetylase 8): 178 nM | Ratio IC50 (Homo sapiens [3]): 3.86 | Ratio IC50 (Homo sapiens [4]): 0.72 | Ratio IC50 (Homo sapiens [5]): 23.8 | Ratio IC50 (Homo sapiens [6]): 9.01 | Ratio IC50 (Homo sapiens [7]): 59.6 | Ratio IC50 (Homo sapiens [8]): 63.1 | Ratio IC50 (Homo sapiens [9]): 81.8
SMILES: O=C(/C=C/c1ccc(CNc2ccc3nc4n(c(=O)c3c2)CCCCC4)cc1)NO
IC50 (HOP-62): 900 nM | Activity (A549 [1]): Dde | inhibition (A549 [10]): Active | inhibition (A549 [11]): Active | inhibition (A549 [12]): Active
